Test results: ChEMBL document CHEMBL5380778, “Structure-Directed Discovery of Potent Soluble Epoxide Hydrolase Inhibitors for the Treatment of Inflammatory Diseases” (J Med Chem, 2023)

Legend:
[1] = biological target: T1, Bifunctional epoxide hydrolase 2 (Homo sapiens, UniProt P34913); assay: Inhibition of recombinant human soluble epoxide hydrolase using PHOME as substrate assessed as 6-methoxynaphthaldehyde product formation preincubated with compound for 10 mins followed by substrate addition and measured by fluorescence based analysis
T1 sequence (P34913 whole entry): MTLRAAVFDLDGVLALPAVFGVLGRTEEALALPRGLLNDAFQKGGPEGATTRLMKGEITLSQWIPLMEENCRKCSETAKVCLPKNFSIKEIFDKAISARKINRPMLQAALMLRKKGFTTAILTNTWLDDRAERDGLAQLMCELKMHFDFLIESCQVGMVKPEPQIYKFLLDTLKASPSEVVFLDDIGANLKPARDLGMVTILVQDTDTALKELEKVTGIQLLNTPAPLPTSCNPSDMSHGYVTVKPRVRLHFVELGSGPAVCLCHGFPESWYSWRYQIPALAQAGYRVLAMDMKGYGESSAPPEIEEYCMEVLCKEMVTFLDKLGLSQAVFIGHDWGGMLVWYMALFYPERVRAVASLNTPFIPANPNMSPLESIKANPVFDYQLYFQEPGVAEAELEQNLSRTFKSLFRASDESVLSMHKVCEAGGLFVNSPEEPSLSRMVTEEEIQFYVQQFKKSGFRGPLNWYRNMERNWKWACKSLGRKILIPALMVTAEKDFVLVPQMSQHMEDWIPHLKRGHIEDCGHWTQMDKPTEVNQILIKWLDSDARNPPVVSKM

[2] = biological target: T2, Bifunctional epoxide hydrolase 2 (Mus musculus, UniProt P34914); assay: Inhibition of recombinant mouse soluble epoxide hydrolase using PHOME as substrate assessed as 6-methoxynaphthaldehyde product formation preincubated with compound for 10 mins followed by substrate addition and measured by fluorescence based analysis
T2 sequence (P34914 whole entry): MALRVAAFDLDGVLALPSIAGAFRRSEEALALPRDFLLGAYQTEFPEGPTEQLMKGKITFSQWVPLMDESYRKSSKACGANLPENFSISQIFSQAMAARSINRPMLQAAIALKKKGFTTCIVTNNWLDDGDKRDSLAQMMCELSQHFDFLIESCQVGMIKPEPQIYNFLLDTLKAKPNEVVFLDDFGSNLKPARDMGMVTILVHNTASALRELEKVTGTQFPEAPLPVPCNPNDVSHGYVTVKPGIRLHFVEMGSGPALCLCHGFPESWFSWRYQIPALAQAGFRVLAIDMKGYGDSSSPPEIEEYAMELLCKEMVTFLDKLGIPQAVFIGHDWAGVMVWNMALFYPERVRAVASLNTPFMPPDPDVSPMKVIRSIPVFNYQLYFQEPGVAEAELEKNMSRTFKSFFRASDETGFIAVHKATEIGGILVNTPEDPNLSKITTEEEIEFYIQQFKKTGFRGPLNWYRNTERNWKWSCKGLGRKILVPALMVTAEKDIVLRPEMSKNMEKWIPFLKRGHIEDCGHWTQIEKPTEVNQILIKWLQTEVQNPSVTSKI

Compound | IC50 [1] | IC50 [2]
CN(C)CCN1CCC(CC(=O)N2CCCN(Cc3ccc(NC(=O)N[C@@]45C[C@@H]6C[C@@](C)(C[C@@](C)(C6)C4)C5)c(F)c3)CC2)CC1 | 2.59 nM | 0.67 nM
CC(O)CNC(=O)C1CCC(NC(=O)c2ccc(NC(=O)N[C@@]34C[C@@H]5C[C@@](C)(C[C@@](C)(C5)C3)C4)c(F)c2)CC1 (some centres not stated) | 1.54 nM | 0.44 nM
C[C@]12C[C@@H]3C[C@](C)(C1)C[C@@](NC(=O)Nc1ccc(CN4CCCC(C(=O)N5CCCN(C(=O)C6CC6)CC5)C4)cc1F)(C3)C2 (some centres not stated) | 0.42 nM | 0.8 nM
C[C@]12C[C@@H]3C[C@](C)(C1)C[C@@](NC(=O)Nc1ccc(C(=O)NC4CCC(C(=O)NC(CO)(CO)CO)CC4)cc1F)(C3)C2 (some centres not stated) | 0.35 nM | 0.12 nM
CCN(CC)C(=O)C1CCN(C(=O)c2ccc(NC(=O)N[C@@]34C[C@@H]5C[C@@](C)(C[C@@](C)(C5)C3)C4)c(F)c2)CC1 | 2.2 nM | 0.53 nM
C[C@]12C[C@@H]3C[C@](C)(C1)C[C@@](NC(=O)Nc1ccc(C(=O)N4CCCC(C(=O)N5CCN(CCO)CC5)C4)cc1F)(C3)C2 (some centres not stated) | 0.84 nM | 0.15 nM
CN(C)C(=O)C1CCCN(Cc2ccc(NC(=O)N[C@@]34C[C@@H]5C[C@@](C)(C[C@@](C)(C5)C3)C4)c(F)c2)C1 (some centres not stated) | 0.7 nM | 0.12 nM
C=C(C)C(=O)N1CCC(CC(=O)N2CCCN(C(=O)c3ccc(NC(=O)N[C@@]45C[C@@H]6C[C@@](C)(C[C@@](C)(C6)C4)C5)cc3)CC2)CC1 | 1 nM | 0.13 nM
C[C@]12C[C@@H]3C[C@](C)(C1)C[C@@](NC(=O)Nc1ccc(CN4CCC(C(=O)NC(CO)CO)CC4)cc1F)(C3)C2 | 31.6 nM | 2.25 nM
C=CC(=O)N1CCCN(C(=O)C2CCCN(Cc3ccc(NC(=O)N[C@@]45C[C@@H]6C[C@@](C)(C[C@@](C)(C6)C4)C5)c(F)c3)C2)CC1 (some centres not stated) | 0.42 nM | 1.1 nM
CCC(C)C(=O)N1CCCN(C(=O)C2CCCN(C(=O)c3ccc(NC(=O)N[C@@]45C[C@@H]6C[C@@](C)(C[C@@](C)(C6)C4)C5)c(F)c3)C2)CC1 (some centres not stated) | 1.4 nM | 0.9 nM
C[C@]12C[C@@H]3C[C@](C)(C1)C[C@@](NC(=O)Nc1ccc(C(=O)N4CCC(C(=O)NCCO)CC4)cc1F)(C3)C2 | 3.43 nM | 0.26 nM
C[C@]12C[C@@H]3C[C@](C)(C1)C[C@@](NC(=O)Nc1ccc(CN4CCC(C(N)=O)CC4)cc1F)(C3)C2 | 1.54 nM | 0.06 nM
COC(=O)N1CCC(CC(=O)N2CCCN(Cc3ccc(NC(=O)N[C@@]45C[C@@H]6C[C@@](C)(C[C@@](C)(C6)C4)C5)c(F)c3)CC2)CC1 | 1.1 nM | 0.41 nM
C[C@]12C[C@@H]3C[C@](C)(C1)C[C@@](NC(=O)Nc1ccc(CN4CCCC(C(=O)NC(CO)(CO)CO)C4)cc1F)(C3)C2 (some centres not stated) | 0.14 nM | 0.32 nM
C[C@]12C[C@@H]3C[C@](C)(C1)C[C@@](NC(=O)Nc1ccc(CN4CCCC(C(N)=O)C4)cc1F)(C3)C2 (some centres not stated) | 0.14 nM | 0.09 nM
CCC(C)C(=O)N1CCC(CC(=O)N2CCCN(Cc3ccc(NC(=O)N[C@@]45C[C@@H]6C[C@@](C)(C[C@@](C)(C6)C4)C5)c(F)c3)CC2)CC1 (some centres not stated) | 0.77 nM | 0.16 nM
CCC(=O)N1CCC(CC(=O)N2CCCN(Cc3ccc(NC(=O)N[C@@]45C[C@@H]6C[C@@](C)(C[C@@](C)(C6)C4)C5)c(F)c3)CC2)CC1 | 0.33 nM | 0.07 nM
CC(O)CNC(=O)C1CCCN(Cc2ccc(NC(=O)N[C@@]34C[C@@H]5C[C@@](C)(C[C@@](C)(C5)C3)C4)c(F)c2)C1 (some centres not stated) | 0.28 nM | 0.58 nM
C[C@]12C[C@@H]3C[C@](C)(C1)C[C@@](NC(=O)Nc1ccc(CN4CCCC(C(=O)NCCO)C4)cc1F)(C3)C2 (some centres not stated) | 0.63 nM | 0.18 nM
CC(=O)N1CCCN(C(=O)C2CCCN(C(=O)c3ccc(NC(=O)N[C@@]45C[C@@H]6C[C@@](C)(C[C@@](C)(C6)C4)C5)c(F)c3)C2)CC1 (some centres not stated) | 0.6 nM | 0.26 nM
